Data: patent publication US7781410B2 (priority 2006, dated 2010)

test system: Sebocytes; assay: cells; type: cell-based, human; conditions: 2,2′-dihydroxychalcone 0.3 μM; Green Tea Extract 0.0 μg/mL

Row | SMILES | % Cholera Toxin Reduction
1 | O=C(/C=C/c1ccccc1O)c1ccccc1O [2,2′-dihydroxy-chalcone] | 14.3%

same assay, conditions: 2,2′-dihydroxychalcone 1.0 μM; Green Tea Extract 0.0 μg/mL

Row | SMILES | % Cholera Toxin Reduction
2 | O=C(/C=C/c1ccccc1O)c1ccccc1O [2,2′-dihydroxy-chalcone] | 38.2%

same assay, conditions: 2,2′-dihydroxychalcone 3.0 μM; Green Tea Extract 0.0 μg/mL

Row | SMILES | % Cholera Toxin Reduction
3 | O=C(/C=C/c1ccccc1O)c1ccccc1O [2,2′-dihydroxy-chalcone] | 50.8%

same assay, conditions: Homo sapiens, read-out: % Reduction in Lipid Synthesis in Sebocytes [3 uM]

Row | SMILES | inhibition at 3 µM
4 | COc1ccc(O)c(C(=O)/C=C/c2cccc(OC)c2OC)c1 | 28.7%
5 | COc1ccc(/C=C/C(=O)c2c(O)cc(OC)cc2OC)cc1 | 28.4%
6 | COc1cc(O)c(C(=O)/C=C/c2ccc(OC)c(OC)c2)c(O)c1 | 20.5%
7 | O=C(/C=C/c1ccc(O)c(O)c1)c1ccc(O)cc1O | 12.8%
8 | COc1ccc(C(=O)/C=C/c2ccc(OC)c(OC)c2)c(O)c1 | 12.4%
9 | O=C(/C=C/c1ccccc1O)c1ccccc1O [drawing 18] | 47.3%
10 | COc1cc(O)c(C(=O)/C=C/c2ccc(OC)c(O)c2)c(OC)c1 | 25.6%
11 | O=C1c2ccc(O)cc2OC1Cc1ccc(O)c(O)c1 (centres unmarked) | 26.9%

same assay, conditions: compound at 3 uM; sebocytes

Row | SMILES | % Reduction in Lipid Synthesis in Sebocytes [3 uM]
12 | COc1ccc(/C=C/C(=O)c2cc(OC)ccc2O)c(OC)c1 | Not Active
13 | COc1ccc(O)c(C(=O)/C=C/c2ccc(OC)c(OC)c2)c1 | Not Active
14 | O=C(/C=C/c1ccc(O)c(O)c1)c1c(O)cc(O)cc1O | Not Active
15 | COc1cccc(/C=C/C(=O)c2ccc(O)cc2O)c1OC | Not Active
16 | COc1cc(OC)c(C(=O)/C=C/c2ccc(O)cc2)c(OC)c1 | Not Active
17 | COc1cc(/C=C/C(=O)c2ccc(O)cc2O)ccc1O | Not Active
18 | COc1ccc(C(=O)/C=C/c2cccc(OC)c2OC)c(O)c1 | Not Active
19 | COc1cc(OC)c(C(=O)/C=C/c2ccc(OC)c(OC)c2)c(OC)c1 | Not Active
20 | COc1ccc(/C=C/C(=O)c2c(O)cc(OC)c(OC)c2OC)c(OC)c1 | Not Active
21 | COc1cc(OC)c(C(=O)/C=C/c2ccc(OC)c(O)c2)c(OC)c1 | Not Active
22 | O=C(/C=C/c1ccc(O)c(O)c1)c1ccc(OC2O[C@H](CO)C(O)[C@H](O)C2O)c(O)c1O (some centres unmarked) | Not Active
23 | COc1ccc(C(=O)/C=C/c2ccc(OC)cc2OC)c(O)c1 | Not Active
24 | COc1cc(OC)c(C(=O)/C=C/c2ccc(O)cc2OC)c(OC)c1 | Not Active
25 | COc1c(/C=C/C(=O)c2ccc(O)cc2)ccc(O)c1O | Not Active
26 | COc1cc(O)c(C(=O)/C=C/c2ccc(O)c(OC)c2)c(OC)c1 | Not Active
27 | COc1ccc(/C=C/C(=O)c2ccc(O)cc2O)cc1OC | Not Active
28 | COc1cc(/C=C/C(=O)c2ccc(O)cc2C)cc(OC)c1OC | Not Active
29 | COc1ccc(C(=O)/C=C/c2cc(OC)c(OC)c(OC)c2)c(O)c1 | Not Active
